According to the NIST ThermoML archive (doi:10.1021/je900524t):
± gives the expanded uncertainty stated by the source.

Settings: Crystal; visual observation

F[P-](F)(F)(F)(F)F.F[P-](F)(F)(F)(F)F.c1cc[n+](CC[n+]2ccccc2)cc1 [1,1'-(ethane-1,2-diyl)bis(pyridin-1-ium) hexafluorophosphate]
Normal melting temperature: 220.20 ± 1.4 °C
